In patent US6372779B1, “Anti-inflammatory compounds” (Ortho Pharmaceutical Corporation, priority 1997, dated 2002):
“Also recorded” adds a separate entry of the source.

How the values were obtained:
[1] = tested on: human progesterone receptor (hPR); assay: human progesterone receptor binding assay (displacement of 3H R5020 promegestone)
Experimental: A human progesterone receptor binding assay was performed in order to determine selectivity of the compounds, as follows. Human progesterone receptors were prepared from either insect cells (SF21) infected with baculovirus hPR A, or from a breast cancer cell line, T47D, which expresses high levels of endogenous hPR. The receptor binding reactions, with or without test compounds, were set up in 96-well microtiter plates which were previously siliconized with SIGMACOTE. The binding components, 3(H) R5020 Promegestone, a high affinity ligand for the progesterone receptors, glycerollmolybdate-containing buffer and unlabeled compounds were added to the wells using a combination of BIOMEK laboratory automation system and repeat pipettes. After overnight incubation, the samples were precipitated with polyethylene glycol and filtered through Whatman GF/F paper using a TOMTEK cell harvester. The filter mate with 96 samples were bound to a solid-phase scintillant and directly counted in the BETAPLATE counter. Only those compounds that were active in the human glucocorticoid receptor assay set forth in Example 30 were used for progesterone receptor binding to determine cross-reactivity profiles, if any. The activity of test compounds to displace 3(H) R5020 binding to hPR is expressed as percent inhibition at the two concentrations, 10^−6 and 10^−5 Molar.

[2] = tested on: oxazolone-induced ear swelling in CD-1 mice; assay: mouse oxazolone-induced contact hypersensitization (MOCH), ear swelling; type: in vivo; settings: for inhibition in vivo at 1 mg: topical to ear, mouse, 24 hours after oxazolone challenge, read-out: Oxazolone Ear Swelling (MOCH) % inhibition vs. Vehicle at 1 mg; for topical antiinflammatory activity in the oxazolone model (in words): mouse ear
Experimental: Several triphenylpropanamide compounds of this invention, having varying affinities for the human glucocorticoid receptor, were tested for topical antiinflammatory activity in mouse ear inflammation models. […] Compounds having receptor affinities closer to hydrocortisone were as nearly active as hydrocortisone in suppressing mouse oxazolone-induced contact hypersensitization (MOCH) and phorbol ester-induced ear edema. The in vivo studies of this example were conducted as follows.
In determining the MOCH using the compounds of this invention, albino male CD-1 mice, 7-9 weeks old were induced on the shaved abdomen with 50 μl of 3% oxazolone in acetone/corn oil (Day 0). On Day 5, a 20 μl volume of 2% oxazolone in acetone was applied to the dorsal left ear of the mouse. Compounds (made in ethanol/propylene glycol, 70:30) were applied to the left ear in 20 μl volume, one hour after oxazolone challenge. The right ear was not treated. The mice were sacrificed by carbon dioxide inhalation 24 hours after oxazolone challenge, the left and right ears were removed and a 7 mm biopsy was removed from each ear and weighed. The difference in biopsy weights between the right and left ears was calculated. Antiinflammatory effects of compounds were evident as an inhibition of the increase in ear weight.

In the case of COc1ccccc1C(=O)NCC(c1ccc(I)cc1)C(c1ccccc1)c1ccccc1 (centres unmarked) [Compound 181], the “hPR % inh 10 μM” value [1] is reported as 41%.

For COc1cccc(CC(=O)NCC(c2ccc(I)cc2)C(c2ccccc2)c2ccccc2)c1 (centres unmarked) [Compound 169], the “hPR % inh 10 μM” value [1] was 45%.

For COc1cccc(C(=O)NCC(c2ccc(I)cc2)C(c2ccccc2)c2ccccc2)c1 (centres unmarked) [Compound 182], the “hPR % inh 10 μM” value [1] was 15%.

In the case of O=C(Cc1ccccc1F)NCC(c1ccc(I)cc1)C(c1ccccc1)c1ccccc1 (centres unmarked) [Compound 164], the “hPR % inh 10 μM” value [1] is reported as 40%.

In the case of O=C(NCC(c1ccc(I)cc1)C(c1ccccc1)c1ccccc1)c1ccc(Cl)c(Cl)c1 (centres unmarked) [Compound 174], the “hPR % inh 10 μM” value [1] is reported as 50%.

In the case of CN(C)c1ccc(C=CC(=O)NCC(c2ccc(C(F)(F)F)cc2)C(c2ccccc2)c2ccccc2)cc1 (centres unmarked) [Compound 159], the “hPR % inh 10 μM” value [1] is reported as 12%.

With O=C(Cc1ccc(F)cc1)NCC(c1ccc(I)cc1)C(c1ccccc1)c1ccccc1 (centres unmarked) [Compound 165] the “hPR % inh 10 μM” value [1] was 79%.

In the case of O=C(Cc1ccc(C(F)(F)F)cc1)NCC(c1ccc(I)cc1)C(c1ccccc1)c1ccccc1 (centres unmarked) [Compound 166], the “hPR % inh 10 μM” value [1] is reported as 46%.

For O=C(Cc1ccc([N+](=O)[O-])cc1)NCC(c1ccc(C(F)(F)F)cc1)C(c1ccccc1)c1ccccc1 (centres unmarked) [Compound 154], the “hPR % inh 10 μM” value [1] was 34%.

In the case of O=C(NCC(c1ccc(I)cc1)C(c1ccccc1)c1ccccc1)c1cc(C(F)(F)F)cc(C(F)(F)F)c1 (centres unmarked) [Compound 178], the “hPR % inh 10 μM” value [1] is reported as 53%.

For COc1ccccc1CC(=O)NCC(c1ccc(I)cc1)C(c1ccccc1)c1ccccc1 (centres unmarked) [Compound 168], the “hPR % inh 10 μM” value [1] was 32%.

For CN(C)c1ccc(CC(=O)NCC(c2ccc(C(F)(F)F)cc2)C(c2ccccc2)c2ccccc2)cc1 (centres unmarked) [Compound 155], the “hPR % inh 10 μM” value [1] was 29%.

With COc1ccc(CC(=O)NCC(c2ccc(I)cc2)C(c2ccccc2)c2ccccc2)cc1 (centres unmarked) [Compound 170] the “hPR % inh 10 μM” value [1] was 25%.

In the case of O=C(NCC(c1ccc(I)cc1)C(c1ccccc1)c1ccccc1)c1ccc(F)cc1 (centres unmarked) [Compound 176], the “hPR % inh 10 μM” value [1] is reported as 68%.

With O=C(Cc1ccc(-c2ccccc2)cc1)NCC(c1ccc(C(F)(F)F)cc1)C(c1ccccc1)c1ccccc1 (centres unmarked) [Compound 156] the “hPR % inh 10 μM” value [1] was 19%.

For Cc1c(CC(=O)NCC(c2ccc(C(F)(F)F)cc2)C(c2ccccc2)c2ccccc2)sc2ccc(Cl)cc12 (centres unmarked) [Compound 158], the “hPR % inh 10 μM” value [1] was 16%.

For O=C(Cc1cc(C(F)(F)F)cc(C(F)(F)F)c1)NCC(c1ccc(I)cc1)C(c1ccccc1)c1ccccc1 (centres unmarked) [Compound 167], the “hPR % inh 10 μM” value [1] was 63%.

With Cc1ccc(C(=O)NCC(c2ccc(I)cc2)C(c2ccccc2)c2ccccc2)s1 (centres unmarked) [Compound 180] the “hPR % inh 10 μM” value [1] was 57%.

For O=C(NCC(c1ccc(I)cc1)C(c1ccccc1)c1ccccc1)c1ccc(C(F)(F)F)cc1 (centres unmarked) [Compound 177], the “hPR % inh 10 μM” value [1] was 53%.

In the case of O=C(NCC(c1ccc(I)cc1)C(c1ccccc1)c1ccccc1)c1ccccc1Cl (centres unmarked) [Compound 172], the “hPR % inh 10 μM” value [1] is reported as 32%.

With COc1ccccc1CCC(=O)NCC(c1ccccc1)C(c1ccc(F)cc1)c1ccc(F)cc1 (centres unmarked) [Compound 23] the inhibition in vivo at 1 mg [2] was 41%, the “topical antiinflammatory activity in the oxazolone model (in words)” value [2] was “moderate topical activity” and the melting point was 78.9 to 80.9 °C.

With O=C(Cc1ccc(Cl)c(Cl)c1)NCC(c1ccccc1)C(c1ccccc1)c1ccccc1 (centres unmarked) [Compound 9] the inhibition in vivo at 1 mg [2] was 18% and the melting point was 65 to 68 °C.

Work on O=C(CCc1ccccc1Cl)NCC(c1ccccc1)C(c1ccccc1)c1ccccc1 (centres unmarked) [Compound 22] yielded an inhibition in vivo at 1 mg [2] of 15% and a melting point of 135 to 135.8 °C.

For CCCCC(=O)NCC(c1ccccc1)C(c1ccccc1)c1ccccc1 (centres unmarked) [Compound 62], the inhibition in vivo at 1 mg [2] was 36% and the melting point was 78 to 79 °C.

With O=C(NCc1ccccc1)NCC(c1ccccc1)C(c1ccccc1)c1ccccc1 (centres unmarked) [Compound 54] the inhibition in vivo at 1 mg [2] was 10% and the melting point was 170 to 171 °C.

Work on O=C(Cc1cccs1)NCC(c1ccc(I)cc1)C(c1ccccc1)c1ccccc1 (centres unmarked) [Compound 33] yielded an inhibition in vivo at 1 mg [2] of 74% and a melting point of 127 to 130 °C.

In the case of O=C(Cc1ccccc1Cl)NCC(c1ccccc1)C(c1ccccc1)c1ccccc1 (centres unmarked) [Compound 2], the inhibition in vivo at 1 mg [2] is reported as 4% and the melting point is reported as 140.5 to 141.2 °C.

In the case of O=C(Cc1cccs1)NCC(c1ccccc1)C(c1ccc(F)cc1)c1ccc(F)cc1 (centres unmarked) [Compound 31], the inhibition in vivo at 1 mg [2] is reported as 14% and the melting point is reported as 84.9 to 85.3 °C.

For O=C(Cc1ccsc1)NCC1(c2ccccc2)CC1(c1ccccc1)c1ccccc1 (centres unmarked) [Compound 89], the inhibition in vivo at 1 mg [2] was 16% and the melting point was 130 to 135 °C.

Cc1ccc(C(=O)NCC(c2ccccc2)C(c2ccccc2)c2ccccc2)s1 (centres unmarked) [Compound 30] gave an inhibition in vivo at 1 mg [2] of 21% and a melting point of 183.5 to 185 °C.

CCOC(=O)CC(=O)NCC(c1ccccc1)C(c1ccccc1)c1ccccc1 (centres unmarked) [Compound 65] showed an inhibition in vivo at 1 mg [2] of 13% and a melting point of 103 to 105.5 °C.

In the case of O=C(NCC(c1ccccc1)C(c1ccccc1)c1ccccc1)Oc1ccccc1 (centres unmarked) [Compound 56], the inhibition in vivo at 1 mg [2] is reported as 38% and the melting point is reported as 128 to 129 °C.

Work on O=C(Cc1ccccc1)NCC(c1ccc(Cl)cc1)C(c1ccccc1)c1ccccc1 (centres unmarked) [Compound 14] yielded an inhibition in vivo at 1 mg [2] of 11% and a melting point of 151.5 to 152.7 °C.

COc1ccccc1CCC(=O)NCC1(c2ccccc2)CC1(c1ccccc1)c1ccccc1 (centres unmarked) [Compound 81] gave an inhibition in vivo at 1 mg [2] of 22% and a melting point of 187.5 to 189 °C.

For O=C(Cc1ccccc1C(F)(F)F)NCC(c1ccccc1)C(c1ccccc1)c1ccccc1 (centres unmarked) [Compound 10], the inhibition in vivo at 1 mg [2] was 19% and the melting point was 109 to 111.5 °C.

O=C(NCC(c1ccccc1)C(c1ccccc1)c1ccccc1)c1cccs1 (centres unmarked) [Compound 45] showed an inhibition in vivo at 1 mg [2] of 31% and a melting point of 139 to 142 °C.

For O=C(Cc1ccc(C(F)(F)F)cc1)NCC(c1ccccc1)C(c1ccccc1)c1ccccc1 (centres unmarked) [Compound 12], the inhibition in vivo at 1 mg [2] was 36% and the melting point was 119.5 to 120.3 °C.

With Cc1ccc(CC(=O)NCC(c2ccccc2)C(c2ccc(F)cc2)c2ccc(F)cc2)s1 (centres unmarked) [Compound 32] the inhibition in vivo at 1 mg [2] was 83%, the “topical antiinflammatory activity in the oxazolone model (in words)” value [2] was “equiactive with hydrocortisone; also recorded: inhibited ear swelling in a dose-dependent manner” and the melting point was 127.9 to 128.9 °C.

Molecule Cc1ccc(C(=O)NCC(c2ccccc2)C2c3ccccc3CCc3ccccc32)s1 (centres unmarked) [Compound 77] has an inhibition in vivo at 1 mg [2] of 41% and a melting point of 172.1 to 173 °C.

Molecule O=S(=O)(Cc1ccccc1)NCC(c1ccccc1)C(c1ccccc1)c1ccccc1 (centres unmarked) [Compound 25] has an inhibition in vivo at 1 mg [2] of 9% and a melting point of 172.9 to 174.2 °C.

O=C(NCC1(c2ccccc2)CC1(c1ccccc1)c1ccccc1)Oc1ccc(Cl)cc1 (centres unmarked) [Compound 97] gave an inhibition in vivo at 1 mg [2] of 50% and a melting point of 171 to 172 °C.

With O=C(CS(=O)(=O)c1ccccc1)NCC(c1ccccc1)C(c1ccccc1)c1ccccc1 (centres unmarked) [Compound 27] the inhibition in vivo at 1 mg [2] was 20% and the melting point was 186.9 to 187.5 °C.

Molecule CC(C)(C)C(=O)NCC(c1ccccc1)C(c1ccccc1)c1ccccc1 (centres unmarked) [Compound 64] has an inhibition in vivo at 1 mg [2] of 26% and a melting point of 143 to 144 °C.

O=C(Cc1ccsc1)NCC(c1ccccc1)C(c1ccccc1)c1ccccc1 (centres unmarked) [Compound 36] showed an inhibition in vivo at 1 mg [2] of 13% and a melting point of 135 to 138 °C.

O=C(NCC(c1ccccc1)C(c1ccccc1)c1ccccc1)c1cc2ccccc2s1 (centres unmarked) [Compound 43] gave an inhibition in vivo at 1 mg [2] of 47% and a melting point of 218.3 to 218.8 °C.

With CC(C)CC(=O)NCC(c1ccccc1)C(c1ccccc1)c1ccccc1 (centres unmarked) [Compound 63] the inhibition in vivo at 1 mg [2] was 3% and the melting point was 112 to 113 °C.
